{"source": "patent US20170014375A1", "about": "“PHARMACEUTICAL COMPOSITION COMPRISING EFFECTIVE DOSE OF POMIFERIN FOR TREATING CANCERS” (Macau University of Science and Technology, priority 2015, published 2017)", "key": {"[1]": {"tested_on": "HCT-116 p53−/− isogenic colon cancer cells", "assay": "MTT cytotoxicity assay, HCT116 p53−/−", "format": "cell-based", "conditions": "Homo sapiens, HCT-116, 72 h, HCT116 p53−/− (p53-deficient), 3 days, read-out: Means of IC50", "experimental": "The test compound of pomiferin is dissolved in DMSO at a final concentration of 100 mmol/L and stored at −20° C. Cytotoxicity is assessed using the 3-(4,5-dimethylthiazol-2-yl)-2,5-diphenyltetrazolium bromide assay as previously described^29. 4000 of drug-resistant HCT-116 p53+/+, HCT-116 p53−/− and HCT-116 p53−/− isogenic colon cancer cells are seeded on 96-well plates per well. After overnight pre-incubation, the cells are exposed to different concentrations of pomiferin (namely […]) for 3 days. Subsequently, 10 μL of MTT reagents is added to each well and incubated at 37° C. for 4 hours, followed by the addition of 100 μL solubilization buffer (10% SDS in 0.01 mol/L HCl) and overnight incubation. Absorbance at 585 nm is determined from each well on the following day. The percentage of cell viability is calculated using the following formula: Cell viability (%)=Cells numbertreated/Cells numberDMSO control×100. Data is obtained from three independent experiments."}, "[2]": {"tested_on": "Atg7 deficient (Atg7−/−) mouse embryonic fibroblasts", "assay": "Annexin V/PI flow cytometry cell death, Atg7−/− MEFs", "format": "cell-based", "conditions": "2 μM, 24 h, FIG. 6B", "experimental": "Cell viability is measured using an annexin V staining kit (BD Biosciences, San Jose, Calif., USA). Briefly, Atg7 wild-type (Atg7+/+ or Atg7-wt) and Atg7 deficient (Atg7−/− or Atg7-ko) mouse embryonic fibroblasts (MEFs) are treated with the 2 μM pomiferin for 24 h. Cells are then harvested and analysed by multiparametric flow cytometry using FITC-Annexin V and Propidium iodide staining (BD Biosciences, San Jose, Calif., USA) according to the manufacturer's instructions. Flow cytometry is then carried out using a FACSCalibur flow cytometer (BD Biosciences, San Jose, Calif., USA). Data acquisition and analysis is performed with CellQuest (BD Biosciences, San Jose, Calif., USA). Data are obtained from three independent experiments."}, "[3]": {"tested_on": "HepG2 (human liver cancer) cells", "assay": "MTT cytotoxicity assay, HepG2", "format": "cell-based", "conditions": "72 h, 3 days, read-out: Means of IC50", "experimental": "(§1) Pomiferin is dissolved in DMSO at a final concentration of 100 mmol/L and stored at −20° C. Cytotoxicity is assessed using the 3-(4,5-dimethylthiazol-2-yl)-2,5-diphenyltetrazolium bromide assay. 4000-8000 HeLa (human cervical cancer), MCF-7 (human breast cancer), HepG2 and Hep3B (human liver cancer), H1299 and A549 (human lung cancer), LNCap (human prostate cancer) and LLC-1 (mouse Lewis lung carcinoma) cells are seeded on 96-well plates per well. After overnight pre-incubation, the cells are exposed to different concentrations of pomiferin ([…]) for 3 days. Subsequently, 10 μL of MTT reagents is added to each well and incubated at 37° C. for 4 hours followed by the addition of 100 μL solubilization buffer (10% SDS in 0.01 mol/L HCl) and overnight incubation. Absorbance at 585 nm is determined from each well the next day. The percentage of cell viability is calculated using the following formula: Cell viability (%)=Cells number treated/Cells number DMSO control×100. Data are obtained from three independent experiments."}, "[4]": {"tested_on": "Atg7 wild-type (Atg7+/+) mouse embryonic fibroblasts", "assay": "Endogenous autophagic LC3 puncta, Atg7 wild-type MEFs", "format": "cell-based", "conditions": "2 μM, FIG. 6A", "experimental": "Endogenous LC3 puncta formation is quantified as previously described^2. In brief, both Atg7 wild-type and deficient mouse embryonic fibroblasts (MEFs) grown on coverslips in a 6-well plate are treated with indicated concentrations of pomiferin. Both Atg7 wild-type and deficient mouse embryonic fibroblasts are then fixed in 4% paraformaldehyde for 20 minutes at room temperature and then rinsed with PBS. After washing with PBS, the cells are then incubated with anti-LC3 (1:200) in TBST (100 mM Tris HCl, pH 7.5, 150 mM NaCl, 0.05% Tween 20 and 5% BSA) overnight at 4. After washing with PBS, the cells are incubated with anti-mouse secondary antibody (TRITC) 1:200 in TBST containing 5% BSA at 37 for 1 hrs in the dark. The coverslips are then mounted with FluorSave™ mounting media (Calbiochem, San Diego, Calif., USA) for fluorescence imaging and localization of LC3 autophagosomes are captured under the API Delta Vision Live-cell Imaging System (Applied Precision Inc., GE Healthcare Company, Washington, USA). To quantify for autophagy, the percentage of cells with punctate TRITC-LC3 fluorescence is calculated by counting the number of the cells with punctate TRITC-LC3 fluorescence in TRITC-positive cells. A minimum of 150 cells from 3 randomly selected fields is scored."}, "HeLa cells": {"tested_on": "HeLa cells", "assay": "Cytosolic calcium detection by flow cytometry (Fluo-3)", "format": "cell-based, human", "conditions": "10 μM, 10 min to 4 h, FIG. 4A", "experimental": "Changes in intracellular free calcium are measured by a fluorescent dye, Fluo-3, as described previously^21. Briefly, HeLa cells are washed twice with MEM medium after pomiferin treatment (10 μM) for various times (10 min, 0.5 h, 1 h, 2 h, 4 h). Then cell suspensions are incubated with 5 μM Fluo-3 at 37° C. for 30 min. Then the cells are washed twice with HBSS. After re-suspended cell samples are subjected to FACS analysis, at least 10,000 events are analyzed."}, "[5]": {"tested_on": "panel of human and mouse cancer cells", "assay": "MTT cytotoxicity assay, panel of human and mouse cancer cells", "format": "cell-based", "conditions": "72 hours, read-out: mean IC50 value range over the panel", "experimental": "as §1"}}}
{"smiles": "CC(C)=CCc1c2c(c3occ(-c4ccc(O)c(O)c4)c(=O)c3c1O)C=CC(C)(C)O2", "note": "[pomiferin]", "values": [{"measurement": "IC50", "setting": "[1]", "result": 6.12, "unit": "µM"}, {"measurement": "cell death (in words)", "setting": "[2]", "result": "not in autophagy deficient cells"}, {"measurement": "IC50", "setting": "[3]", "result": 13.6, "unit": "µM"}, {"measurement": "TRITC-LC3 puncta formation", "setting": "[4]", "result": "induce TRITC-LC3 puncta formation"}, {"measurement": "cytosolic calcium level", "setting": "HeLa cells", "result": "increase the cytosolic calcium level in a time dependent manner"}, {"measurement": "IC50", "setting": "[5]", "result": "3.82 to 20.3", "unit": "µM"}]}
